# Assay results from ChEMBL document CHEMBL5550210, “Discovery of Novel α,β-Unsaturated Amide Derivatives as Candidate Antifungals to Overcome Fungal Resistance” (J Med Chem, 2024).
# Calls of active or inactive are those of the source. The rule behind the calls is not given here.
# How the values were obtained:
# Candida albicans [1] = assay: Antifungal activity against fluconazole-resistant Candida albicans 632 assessed as inhibition of fungal growth by CLSI based microdilution method; assay type: functional
# [2] = Acute toxicity in Kunming male mouse assessed as liver damage at 100 mg/kg,po administrated for 7 days by hematoxylin and eosin staining based microscopic analysis; assay type: organism-based; conditions: in vivo, 168 h, time 7 day
# Candida albicans [3] = assay: Antifungal activity against fluconazole-resistant Candida albicans CaR assessed as inhibition of fungal growth by CLSI based microdilution method; assay type: functional
# [4] = Tmax in Sprague-Dawley rat at 5 mg/kg,po by LC-MS/MS analysis; assay type: ADME, organism-based; conditions: in vivo
# [5] = Stability in mouse plasma assessed as parent compound remaining measured at 180 mins; assay type: ADME, cell-free; conditions: read-out: Stability
# Candida albicans [6] = assay: Fungicidal activity against fluconazole-resistant Candida albicans 904 assessed as reduction in colony forming units at 32 times MIC incubated for 24 hrs by time-kill curve assay; assay type: functional
# [7] = Oral bioavailability in Sprague-Dawley rat at 5 mg/kg by LC-MS/MS analysis; assay type: ADME, organism-based; conditions: in vivo
# [8] = Acute toxicity in Kunming male mouse assessed as kidney damage at 100 mg/kg,po administrated for 7 days by hematoxylin and eosin staining based microscopic analysis; assay type: organism-based; conditions: in vivo, 168 h, time 7 day
# [9] = Acute toxicity in Kunming female mouse assessed as liver damage at 100 mg/kg,po administrated for 7 days by hematoxylin and eosin staining based microscopic analysis; assay type: organism-based; conditions: in vivo, 168 h, time 7 day
# [10] = Half life in Sprague-Dawley rat at 2 mg/kg,iv by LC-MS/MS analysis; assay type: ADME, organism-based; conditions: in vivo
# Candida albicans [11] = assay: Antifungal activity against fluconazole-resistant Candida albicans 904 assessed as downregulation of MDR1 gene expression at 16 ug/ml incubated for 16 hrs by RT-PCR analysis; assay type: functional, organism-based; conditions: dose 16.0 µg/ml
# [12] = Acute toxicity in Kunming mouse assessed as animal death at 1000 mg/kg,po administrated for 7 days; assay type: organism-based; conditions: in vivo, 168 h, time 7 day
# [13] = Half life in mouse plasma measured at 180 mins; assay type: ADME, cell-free
# [14] = Subacute toxicity in Kunming mouse assessed as animal death at 100 mg/kg,po administrated once daily for 14 days; assay type: organism-based; conditions: in vivo, 336 h, time 14 day
# Candida albicans [15] = assay: Antifungal activity against fluconazole-resistant Candida albicans 904 infected ICR mouse model assessed as reduction in fungal burden in kidney at 10 to 20 mg/kg,ip administration for 5 days; assay type: functional, organism-based; conditions: dose 10-20 mg/kg, time 5.0 day
# Candida albicans [16] = assay: Antifungal activity against Candida albicans CPCC400616 assessed as inhibition of fungal biofilm formation incubated for 24 hrs by XTT assay; assay type: functional, organism-based
# [17] = Clearance in Sprague-Dawley rat at 2 mg/kg,iv by LC-MS/MS analysis; assay type: ADME, organism-based; conditions: in vivo
# [18] = molecular target: Lanosterol 14-alpha demethylase (Candida albicans (strain SC5314 / ATCC MYA-2876) (Yeast), UniProt P10613); assay: Inhibition of CYP51 in Candida albicans SC5314 assessed as increase in lanosterol level at 0.031 ug/ml incubated for 24 hrs by GC-MS analysis relative to control; conditions: at 0.031 µg/mL
# Candida albicans [19] = assay: Antifungal activity against Candida albicans SC5314 infected ICR mouse model assessed as reduction in fungal burden in kidney at ip administration for 5 days; assay type: functional, organism-based; conditions: time 5.0 day
# [20] = AUC (0 to infinity) in Sprague-Dawley rat at 2 mg/kg,iv by LC-MS/MS analysis; assay type: ADME, organism-based; conditions: in vivo
# [21] = Volume of distribution at steady state in Sprague-Dawley rat at 2 mg/kg,iv by LC-MS/MS analysis; assay type: ADME, organism-based; conditions: in vivo, read-out: Vdss
# [22] = Acute toxicity in rat assessed as Low-observed adverse effect level at po administration; assay type: organism-based; conditions: in vivo
# [23] = Acute toxicity in Kunming mouse assessed as behavioral change at 1000 mg/kg,po administrated for 7 days; assay type: organism-based; conditions: in vivo, 168 h, time 7 day
# [24] = Acute toxicity in Kunming mouse assessed as increase in body weight at 100 mg/kg,po administrated once daily for 14 days; assay type: organism-based; conditions: in vivo, 336 h, time 14 day
# Candida albicans [25] = assay: Antifungal activity against fluconazole-resistant Candida albicans 904 infected ICR mouse model assessed as median survival time at 10 mg/kg,ip administration for 14 days; assay type: functional; conditions: time 14 day
# [26] = Acute toxicity in Kunming mouse assessed as change in body weight at 1000 mg/kg,po administrated for 7 days; assay type: organism-based; conditions: in vivo, 168 h, time 7 day
# [27] = Half life in Sprague-Dawley rat at 5 mg/kg,po by LC-MS/MS analysis; assay type: ADME, organism-based; conditions: in vivo
# Candida albicans [28] = assay: Antifungal activity against Candida albicans SC5314 assessed as leakage of endogenous substances at 16 ug/ml incubated for 24 hrs by transmission electron microscopic analysis; assay type: functional, organism-based; conditions: dose 16.0 µg/ml
# Nakaseomyces glabratus = assay: Antifungal activity against Candida glabrata assessed as inhibition of fungal growth by CLSI protocol based microdilution method; assay type: functional
# Pichia kudriavzevii = assay: Antifungal activity against Candida krusei AS 2.1045 assessed as inhibition of fungal growth by CLSI protocol based microdilution method; assay type: functional
# [29] = Subacute toxicity in Kunming mouse assessed as behavioral change at 100 mg/kg,po administrated once daily for 14 days; assay type: organism-based; conditions: in vivo, 336 h, time 14 day
# [30] = MRTinfinity in Sprague-Dawley rat at 5 mg/kg,po by LC-MS/MS analysis; assay type: ADME, organism-based; conditions: in vivo
# Candida albicans [31] = assay: Antifungal activity against Candida albicans SC5314 assessed as fungal cell membrane injury at 16 ug/ml incubated for 24 hrs by transmission electron microscopic analysis; assay type: functional, organism-based; conditions: dose 16.0 µg/ml
# Candida albicans [32] = assay: Antifungal activity against fluconazole-resistant Candida albicans 904 assessed as downregulation of TEC1 gene expression at 16 ug/ml incubated for 12 hrs by RT-PCR analysis; assay type: functional, organism-based; conditions: dose 16.0 µg/ml
# [33] = AUC (0 to infinity) in Sprague-Dawley rat at 5 mg/kg,po by LC-MS/MS analysis; assay type: ADME, organism-based; conditions: in vivo
# Candida albicans [34] = assay: Antifungal activity against fluconazole-resistant Candida albicans 904 assessed as inhibition of fungal growth by CLSI based microdilution method; assay type: functional
# [35] = MRTinfinity in Sprague-Dawley rat at 2 mg/kg,iv by LC-MS/MS analysis; assay type: ADME, organism-based; conditions: in vivo
# Candida albicans [36] = assay: Antifungal activity against Candida albicans CPCC400616 assessed as inhibition of fungal growth by CLSI protocol based microdilution method; assay type: functional
# Candida albicans [37] = assay: Antifungal activity against Candida albicans CPCC400616 assessed as downregulation of EFG1 gene expression at 2 ug/ml incubated for 12 hrs by RT-PCR analysis; assay type: functional, organism-based; conditions: dose 2.0 µg/ml
# Aspergillus fumigatus = assay: Antifungal activity against Aspergillus fumigatus CGMCC 3.7795 assessed as inhibition of fungal growth by CLSI protocol based microdilution method; assay type: functional
# Candida albicans [38] = assay: Antifungal activity against fluconazole-resistant Candida albicans 904 infected ICR mouse model assessed as median survival time at 20 mg/kg,ip administration for 14 days; assay type: functional; conditions: time 14 day
# [39] = Acute toxicity in Kunming female mouse assessed as kidney damage at 100 mg/kg,po administrated for 7 days by hematoxylin and eosin staining based microscopic analysis; assay type: organism-based; conditions: in vivo, 168 h, time 7 day
# Candida albicans [40] = assay: Antifungal activity against fluconazole-resistant Candida albicans 904 assessed as increase in intracellular fluorescence intensity at 32 ug/ml incubated for 4 hrs by fluorescence inverted microscopic analysis; assay type: functional, organism-based; conditions: dose 32.0 µg/ml
# [41] = Metabolic stability in mouse liver microsomes assessed as half life; assay type: ADME, Microsome
# Sequence of Lanosterol 14-alpha demethylase (P10613 whole entry): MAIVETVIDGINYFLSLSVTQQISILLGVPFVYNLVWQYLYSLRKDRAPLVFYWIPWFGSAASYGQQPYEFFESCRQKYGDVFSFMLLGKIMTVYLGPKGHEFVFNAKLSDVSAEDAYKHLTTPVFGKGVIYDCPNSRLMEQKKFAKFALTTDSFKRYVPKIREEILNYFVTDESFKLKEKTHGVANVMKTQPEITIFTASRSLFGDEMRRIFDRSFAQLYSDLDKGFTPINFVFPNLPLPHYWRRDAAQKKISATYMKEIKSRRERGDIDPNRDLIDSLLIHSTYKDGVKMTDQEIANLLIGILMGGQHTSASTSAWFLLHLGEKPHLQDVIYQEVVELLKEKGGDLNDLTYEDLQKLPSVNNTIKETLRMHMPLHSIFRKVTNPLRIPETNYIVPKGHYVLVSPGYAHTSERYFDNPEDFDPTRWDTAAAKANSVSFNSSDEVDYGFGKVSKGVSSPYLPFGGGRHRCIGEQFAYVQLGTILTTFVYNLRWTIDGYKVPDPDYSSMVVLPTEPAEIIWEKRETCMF
compound,measurement,setting,value
CCCCNC(=O)/C=C/c1ccc(COC(Cn2ccnc2)c2ccc(Cl)cc2Cl)cc1 (stereo unspecified),MIC,Candida albicans [1],0.25 µg/mL
same,Activity,[2],Toxic
same,MIC,Candida albicans [3],1 µg/mL
same,Tmax,[4],1 h
same,remaining at 3 h,[5],102%
same,Activity,Candida albicans [6],2 log10CFU/ml
same,bioavailability,[7],12.8%
same,Activity,[8],Toxic
same,Activity,[9],Toxic
same,half-life,[10],1.72 h
same,Activity,Candida albicans [11],Active
same,Activity,[12],Non-Toxic
same,half-life,[13],> 6 h
same,Activity,[14],Non-Toxic
same,Activity,Candida albicans [15],Active
same,Activity,Candida albicans [16],Dose-Dependent Effect
same,clearance,[17],23.7 mL/min/kg
same,inhibition (INH),[18],Active
same,Activity,Candida albicans [19],Dose-Dependent Effect
same,AUC(0-inf),[20],1410 ng·h/mL
same,Vd,[21],1.76 L/kg
same,LOAEL,[22],1.138 mg/kg
same,Activity,[23],Non-Toxic
same,Activity,[24],Toxic
same,MST,Candida albicans [25],10 days
same,Activity,[26],Non-Toxic
same,half-life,[27],1.23 h
same,Activity,Candida albicans [28],Active
same,MIC,Nakaseomyces glabratus,4 µg/mL
same,MIC,Pichia kudriavzevii,2 µg/mL
same,Activity,[29],Non-Toxic
same,MRT inf,[30],1.93 h
same,Activity,Candida albicans [31],Active
same,Activity,Candida albicans [32],Active
same,AUC(0-inf),[33],452 ng·h/mL
same,MIC,Candida albicans [34],1 µg/mL
same,MRT inf,[35],1.24 h
same,MIC,Candida albicans [36],0.03 µg/mL
same,Activity,Candida albicans [37],Active
same,MIC,Aspergillus fumigatus,0.5 µg/mL
same,MST,Candida albicans [38],13.52 days
same,Activity,[39],Non-Toxic
same,Activity,Candida albicans [40],Active
same,half-life,[41],1 h
O=C(/C=C/c1ccc(COC(Cn2ccnc2)c2ccc(Cl)cc2Cl)cc1)Nc1ccc(Cl)cc1Cl (stereo unspecified),MIC,Candida albicans [1],0.25 µg/mL
same,MIC,Candida albicans [3],1 µg/mL
same,remaining at 3 h,[5],97.8%
same,Activity,Candida albicans [11],Active
same,half-life,[13],> 6 h
same,Activity,Candida albicans [16],Dose-Dependent Effect
same,inhibition (INH),[18],Active
same,LOAEL,[22],0.452 mg/kg
same,MIC,Nakaseomyces glabratus,1 µg/mL
same,MIC,Pichia kudriavzevii,0.5 µg/mL
same,Activity,Candida albicans [32],Active
same,MIC,Candida albicans [34],1 µg/mL
same,MIC,Candida albicans [36],0.06 µg/mL
same,Activity,Candida albicans [37],Active
same,MIC,Aspergillus fumigatus,0.5 µg/mL
same,Activity,Candida albicans [40],Active
same,half-life,[41],0.493 h
